We go through three molecules from ChEMBL document CHEMBL1932938, “From COX-2 inhibitor nimesulide to potent anti-cancer agent: synthesis, in vitro, in vivo and pharmacokinetic evaluation” (Eur J Med Chem, 2012).

For series [1], the system named is SK-BR-3. Put plainly: cells. Conditions: Homo sapiens, SK-BR-3, 48 h.
Description: Cytotoxicity against human SK-BR-3 cells after 48 hrs by MTT assay
Series [2] can be described thus: Solubility of the compound. In kind it is physicochemical.

For orientation: pIC50 means the negative decadic logarithm of the IC50, by convention in mol/L.

pIC50: −log10 of the molar value.

The molecule `Cc1ccc(C)c(COc2cc(NC(=O)Cc3ccccc3)ccc2N(C)S(C)(=O)=O)c1` had a pIC50 in series [1] below 4.00.
Regarding `CCCCCCCCCCCCCCCC(=O)Nc1ccc(N(C)S(C)(=O)=O)c(OCc2cc(C)ccc2C)c1`, the solubility result in series [2] is recorded as “Insoluble”.
For `COc1ccc(CC(=O)Nc2ccc(N(C)S(C)(=O)=O)c(OCc3cc(C)ccc3C)c2)cc1OC`, the pIC50 in series [1] was 4.47.
